Assay [1] deals with dengue virus type 2. The experiment in a line: Functional assay to measure dose dependent changes in antiviral-drug inhibitory efficacy against Dengue virus type 2 New Guinea C in Vero E6 miRFP670 cells (cotreated with P-gp inhibitor, CP100356). Cells are treated with antiviral candidates that are serially diluted, following infection, cells are fixed. EC50 is reported via analysis of fluorescence intensity using high-content imager. The …. Type of assay: organism-based, Chlorocebus sabaeus, Vero C1008.

In assay [2] the test system is Zika virus. The experiment in a line: Functional CPE-based assay to measure dose dependent changes in antiviral-drug inhibitory efficacy against Zika virus MR766 in Vero E6 miRFP670 cells. Cells are treated with antiviral candidates that are serially diluted. EC50 is reported via analysis of MTS assay as a readout of CPE. The assay has been performed by KU Leuven. Type of assay: organism-based, Chlorocebus sabaeus, Vero C1008. Conditions: Zika virus; for EC50: Vero C1008.

Assay [3] concerns Zika virus. Put plainly: EC50 is reported via analysis of immunofluorescence staining. The assay has been performed by Icahn School of Medicine at Mount Sinai. Type of assay: functional, organism-based, Chlorocebus sabaeus, VeroE6/TMPRSS2.
Assay [4] relates to dengue virus type 2. The experiment in a line: Functional immunofluorescence assay to measure dose dependent changes in antiviral-drug inhibitory efficacy against Dengue virus type 2 Thailand/16681/84 in Vero E6/TMPRSS2 cells. Cells are treated with antiviral candidates that are serially diluted, following infection, cells are fixed. EC50 is reported via analysis of immunofluorescence staining. The assay has been performed by Icahn School of Medicine at Mount Sinai. It is filed as organism-based, Chlorocebus sabaeus. Conditions: for EC50: VeroE6/TMPRSS2; for EC90: VeroE6/TMPRSS2, Baseline response 0 %, Maximum response 100 %.

Assay [5] deals with dengue virus type 2. The experiment in a line: Functional CPE-based assay to measure dose dependent changes in antiviral-drug inhibitory efficacy against Dengue virus type 2 New Guinea C in Huh7 cells. Cells are treated with antiviral candidates that are serially diluted. EC50 is reported via analysis of MTT/MTS assay as a readout of CPE. The assay has been performed by National Institute of Allergy and Infectious Diseases. It is filed as organism-based, Homo sapiens. As to conditions: Huh-7. In general terms: Formazan colour is commonly taken as a measure of viable cells.

The subject of assay [6] is dengue virus type 2. The experiment in a line: Functional immunofluorescence assay to measure dose dependent changes in antiviral-drug inhibitory efficacy against Dengue virus type 2 Thailand/16681/84 in Vero E6/TMPRSS2 cells (cotreated with P-gp inhibitor, Elacridar). Cells are treated with antiviral candidates that are serially diluted, following infection, cells are fixed. EC50 is reported via analysis of immunofluorescence staining. The assay has been performed by Icahn School of Medicine at Mount Sinai. It is filed as organism-based, Chlorocebus sabaeus, VeroE6/TMPRSS2.

Assay [7] deals with Zika virus. Put plainly: Functional immunofluorescence assay to measure dose dependent changes in antiviral-drug inhibitory efficacy against Zika virus PRVABC59 in Vero E6/TMPRSS2 cells. Cells are treated with antiviral candidates that are serially diluted, following infection, cells are fixed. EC50 is reported via analysis of immunofluorescence staining. The assay has been performed by Icahn School of Medicine at Mount Sinai. It is filed as organism-based, Chlorocebus sabaeus. As to conditions: for EC50: VeroE6/TMPRSS2.

Several values for one entry are separate records, joined by “and”; a condition that tells them apart may be missing. Equal values may be shown once.

On to `CC(C)CNC(=O)c1cc(Cl)c(F)cc1NS(=O)(=O)c1ccc(Oc2ccccc2Cl)cc1`, for which the EC90 in assay [1] (Baseline response 0 %, Hill slope -36.406, Maximum measured 110.21 %, Maximum response 100 %, Minimum measured 0.136 %, P-gp concentration 500 nM, R squared 0.986, P-gp inhibitor CP100356) was 5.99 µM; in assay [1] (Dengue virus, Vero C1008), 5.85 µM; in assay [2] (Vero C1008, Baseline response 0 %, Hill slope -1.049, Maximum measured 4.723 %, Maximum response 100 %, Minimum measured -5.364 %, R squared 0.235) it was greater than 50 µM; in assay [2] (Vero C1008, Maximum measured 0.142 %, Minimum measured -3.427 %) it was greater than 50 µM; in assay [2] (Vero C1008, Maximum measured 0.689 %, Minimum measured -11.388 %) it was greater than 50 µM; in assay [3] (Baseline response 0 %, Hill slope -1.279, Maximum measured 136.576 %, Maximum response 60 %, Minimum measured 13.183 %, P-gp concentration 2 uM, R squared 0.138, P-gp inhibitor Elacidar) it was greater than 50 µM. Further, the concentration for an effect of 90% (EC90) in assay [3] (Baseline response 0 %, Hill slope -13.406, Maximum measured 146.245 %, Maximum response 100 %, Minimum measured 54.335 %, P-gp concentration 2 uM, R squared 0.12, P-gp inhibitor Elacidar) is greater than 16.7 µM; in assay [4] (Hill slope -0.469, Maximum measured 101.396 %, Minimum measured 33.359 %, R squared 0.321) it was greater than 1.85 µM; in assay [6] (Dengue virus, VeroE6/TMPRSS2) it was 1.89 µM; in assay [6] (Dengue virus, VeroE6/TMPRSS2, Maximum measured 155.684 %, Minimum measured 125.095 %, P-gp concentration 2 uM, P-gp inhibitor Elacidar) it was greater than 5.56 µM; in assay [7] (VeroE6/TMPRSS2, Maximum measured 624.218 %, Minimum measured 63.552 %), greater than 50 µM. Further, the concentration for a half-maximal effect (EC50) in assay [1] (Dengue virus, Vero C1008) is 5.32 µM; in assay [1] (vero c1008), 5.64 µM; in assay [2], greater than 50 µM; in assay [3] (Zika virus, VeroE6/TMPRSS2), greater than 16.7 µM; in assay [3] (veroe6/tmprss2), 27.9 µM; in assay [4], 0.193 µM. Also, the half-maximal effective concentration (EC50) in assay [5] is greater than 3.1 µM; in assay [7], greater than 50 µM.
`CC(C)CNC(=O)c1cc(Cl)ccc1NS(=O)(=O)c1ccc(Oc2ccccc2Cl)cc1`: the EC50 in assay [1] (Dengue virus, Vero C1008) is 5.64 µM; in assay [2], greater than 50 µM; in assay [3] (veroe6/tmprss2), > 3.33 µM and 19.2 µM and 29.1 µM; in assay [4], 0.569 µM; in assay [5], greater than 6.5 µM; in assay [7], 4.4 µM. Further, the 90% effect concentration (EC90) in assay [1] (Dengue virus, Vero C1008, Baseline response 0 %, Hill slope -37.142, Maximum measured 110.023 %, Maximum response 100 %, Minimum measured 0.325 %, P-gp concentration 500 nM, R squared 0.985, P-gp inhibitor CP100356) is 5.99 µM; in assay [2] (Vero C1008, Maximum measured -0.388 %, Minimum measured -2.415 %), greater than 50 µM; in assay [3] (Baseline response 0 %, EC90 CI (lower) 6.158 uM, EC90 CI (upper) 70.47 uM, Hill slope -6.578, Maximum measured 126.059 %, Maximum response 100 %, Minimum measured 2.779 %, P-gp concentration 2 uM, R squared 0.75, P-gp inhibitor Elacidar), 40.6 µM; in assay [3] (Zika virus, VeroE6/TMPRSS2), 32.4 µM; in assay [3] (Zika virus, VeroE6/TMPRSS2, Maximum measured 119.408 %, Minimum measured 55.418 %, P-gp concentration 2 uM, P-gp inhibitor Elacidar) it was greater than 3.33 µM; in assay [4] (Hill slope -0.624, Maximum measured 99.166 %, Minimum measured 12.707 %, R squared 0.743), greater than 16.7 µM. For the same compound, the 90% effect concentration (EC90) in assay [6] (Baseline response 0 %, EC90 CI (lower) 0.741 uM, EC90 CI (upper) 4.671 uM, Hill slope -3.39, Maximum measured 117.923 %, Maximum response 100 %, Minimum measured 16.6 %, P-gp concentration 2 uM, R squared 0.718, P-gp inhibitor Elacidar) is 6.8 µM; in assay [6] (Baseline response 0 %, EC90 CI (lower) […] uM, EC90 CI (upper) 0.019 uM, Hill slope -1.255, Maximum measured 118.581 %, Maximum response 100 %, Minimum measured 5.952 %, P-gp concentration 2 uM, R squared 0.745, P-gp inhibitor Elacidar) it was 0.18 µM; in assay [6] (Dengue virus, VeroE6/TMPRSS2, Maximum measured 165.458 %, Minimum measured 88.019 %, P-gp concentration 2 uM, P-gp inhibitor Elacidar) it was greater than 16.7 µM; in assay [7] (VeroE6/TMPRSS2, Baseline response 0 %, Hill slope -0.566, Maximum measured 86.366 %, Maximum response 100 %, Minimum measured 3.533 %, R squared 0.722), greater than 50 µM.
For the compound `c1cc(C2CCN(Cc3c[nH]c4ccccc34)CC2)c2ccncc2c1`, the EC50 in assay [1] (Dengue virus, Vero C1008) is 2.69 µM; in assay [4], 0.336 µM; in assay [5], 27 µM; in assay [6] (veroe6/tmprss2), 0.047 µM and < 0.023 µM; in assay [7], 7.01 µM. In addition, the EC90 in assay [1] (Dengue virus, Vero C1008, Baseline response 0 %, EC90 CI (lower) 0.253 uM, EC90 CI (upper) 1.159 uM, Hill slope -1.373, Maximum measured 83.881 %, Maximum response 100 %, Minimum measured 4.274 %, P-gp concentration 500 nM, R squared 0.884, P-gp inhibitor CP100356) is 13.3 µM; in assay [3] (Baseline response 0 %, Hill slope -0.578, Maximum measured 88.327 %, Maximum response 100 %, Minimum measured 9.758 %, P-gp concentration 2 uM, R squared 0.671, P-gp inhibitor Elacidar) it was greater than 50 µM; in assay [3] (Zika virus, VeroE6/TMPRSS2) it was 25.3 µM; in assay [4] (EC90 CI (lower) 0 uM, EC90 CI (upper) 0.803 uM, Hill slope -0.593, Maximum measured 141.896 %, Minimum measured 11.317 %, R squared 0.319), 13.6 µM; in assay [6] (Baseline response 0 %, EC90 CI (lower) 0 uM, EC90 CI (upper) 0.011 uM, Hill slope -0.624, Maximum measured 68.2 %, Maximum response 100 %, Minimum measured 5.474 %, P-gp concentration 2 uM, R squared 0.683, P-gp inhibitor Elacidar), 1.58 µM; in assay [6] (Baseline response 0 %, EC90 CI (lower) 0 uM, EC90 CI (upper) […] uM, Hill slope -0.4, Maximum measured 23.467 %, Maximum response 30 %, Minimum measured 3.547 %, P-gp concentration 2 uM, R squared 0.817, P-gp inhibitor Elacidar), 16.1 µM. Moreover, in assay [7] (VeroE6/TMPRSS2, Baseline response 0 %, Hill slope -0.669, Maximum measured 111.623 %, Maximum response 100 %, Minimum measured 18.809 %, R squared 0.805), the EC90 was greater than 50 µM.

By EC90 is commonly meant the point of the concentration-response curve where the effect stands at 90%. In general, EC50 refers to the concentration needed to bring the measured effect to its halfway point.

Source of the values: ChEMBL document CHEMBL5661943, “ASAP - In vitro antiviral effect” (2024).
